Data taken from PMC7179259, “Safety, Tolerability, Pharmacokinetics, and Antimalarial Activity of the Novel Plasmodium Phosphatidylinositol 4-Kinase Inhibitor MMV390048 in Healthy Volunteers” (Antimicrobial Agents and Chemotherapy, 2020).
Marks after values point to notes of the source that are not given here.

Tested on: healthy volunteers
Assay: First-in-human single-ascending-dose study: safety and tolerability
Type: in vivo
Details: for lowest observed neutrophil count: 24 h after 40 mg
Method: The first-in-human study was conducted at the University of Cape Town Clinical Research Centre (Cape Town, South Africa) between 30 April 2014 and 2 February 2015. This was a phase 1, adaptive, single-center, double-blind, randomized, placebo-controlled, ascending-dose study. The study was planned in two parts, with a single ascending dose and then a multiple ascending dose. However, the multiple-ascending-dose part was not executed due to the high variability in pharmacokinetic profiles observed during the single-ascending-dose part (see Results).
(i) First-in-human study. The study was conducted in five fasted cohorts (5, 20, 40, 80, and 120 mg) and one fed 40-mg cohort. The initial dose of 5 mg was chosen in agreement with guidelines on dose selection for first-in-human clinical studies ([15], [16]) and was based on the no-observed-adverse-event level for the most sensitive species observed in preclinical toxicology studies. Doses administered to subsequent cohorts were determined a priori after consideration of interim human pharmacokinetic and safety data.
MMV390048 and placebo were each supplied as a powder for suspension packaged in white opaque high-density polyethylene bottles, with a volume capacity of 100 ml when reconstituted with deionized water (Almac Pharma Services, United Kingdom). The powder contained the following excipients: Avicel CL611, disodium edetate, sodium citrate dihydrate, methyl paraben, sucralose, povidone, and orange flavor. The reconstituted formulation consisted of the active ingredient MMV390048 in an aqueous suspension of 5 mg ml^−1.
All subjects in the fasted cohorts were dosed on day 1 after a fasting period of ≥8 h. Water was prohibited from 2 h predose and then allowed ad libitum from 2 h postdose, and standardized meals were provided from 4 h postdose. In the first two cohorts (5 and 20 mg), a sentinel subcohort (n = 2) was dosed on day 1. The safety review team reviewed safety and pharmacokinetic data of these subjects up to day 3 before dosing the rest of these two cohorts and up to day 19 for all cohorts before dose escalation. […] Selected subjects from the fasted cohorts then received 40 mg in a fed state to evaluate the effect of food on the tolerability and pharmacokinetic profile of MMV390048. […] The predose breakfast was in line with FDA guidelines ([13]) and was composed of approximately 800 to 1,000 calories (cal), with 150, 250, and 500 to 600 cal from protein, carbohydrate, and fat, respectively.
Safety endpoints were the incidence, severity, and relationship to the investigational product (and inoculum for the IBSM study) of observed and self-reported adverse events (AEs), and changes from baseline in physical examination, vital signs, standard electrocardiograms (ECGs), continuous ECGs (first-in-human study only), and laboratory evaluation (hematology, coagulation parameters, hemolysis panel, clinical chemistry, and urinalysis) findings. […] AE severity was evaluated according to the Common Terminology Criteria for Adverse Events version 4.03 ([18]) and the World Health Organization recommendations for grading acute and subacute toxic effects ([19]).

[1] = first-in-human study, 5 mg (n = 6)
[2] = first-in-human study, 20 mg (n = 6)
[3] = first-in-human study, 40 mg (n = 6)
[4] = first-in-human study, 40 mg (n = 6), AE was neutropenia
[5] = first-in-human study, 40 mg FED (n = 6)
[6] = first-in-human study, 40 mg FED (n = 6), AE was neutropenia
[7] = first-in-human study, 80 mg (n = 6)
[8] = first-in-human study, 120 mg (n = 6)
[9] = first-in-human study, 120 mg (n = 6), SAE was generalized myoclonus

How did the “serious AE (SAE) reported” value (approximately 24 h after 120 mg, subject with undisclosed history of epilepsy) turn out when CS(=O)(=O)c1ccc(-c2cnc(N)c(-c3ccc(C(F)(F)F)nc3)c2)cc1 [MMV390048] was run?
The value was “generalized myoclonus”.

And the “No. (%) of subjects with adverse events: All AEs” value [1]?
Its value is 4 (67).

And the “No. (%) of subjects with adverse events: All AEs, Treatment related” value (from here on “No. (%) … All AEs, Treatment related”) [1]?
Its value is 0.

And the “No. (%) of subjects with adverse events: Grade 2 AEs” value [1]?
Its value is 0.

What about the “No. (%) of subjects with adverse events: Grade 2 AEs, Treatment related” value (shortened to “No. (%) … Grade 2 AEs, Treatment related”) [1] of the same molecule?
The value was 0.

What about the “No. (%) of subjects with adverse events: Grade 3 AEs” value (“No. (%) of subjects … Grade 3 AEs” below) [1] of the same molecule?
Its value is 0.

And the “No. (%) of subjects with adverse events: SAEs” value (shortened to “No. (%) of subjects … SAEs”) [1]?
Its value is 0.

And the “No. of adverse events: All AEs” value [1]?
The value was 11.

What about the “No. of adverse events: All AEs, Treatment related” value [1] of the same molecule?
Its value is 0.

And the “No. of adverse events: Grade 2 AEs” value [1]?
The value was 0.

And the “No. of adverse events: Grade 2 AEs, Treatment related” value [1]?
Its value is 0.

And the “No. of adverse events: Grade 3 AEs” value [1]?
The value was 0.

What about the “No. of adverse events: SAEs” value [1] of the same molecule?
Its value is 0.

And the “No. (%) of subjects with adverse events: All AEs” value [2]?
The value was 5 (83).

And the “No. (%) … All AEs, Treatment related” value [2]?
The value was 3 (50).

And the “No. (%) of subjects with adverse events: Grade 2 AEs” value [2]?
The value was 4 (67).

What about the “No. (%) … Grade 2 AEs, Treatment related” value [2] of the same molecule?
The value was 1 (17).

And the “No. (%) of subjects … Grade 3 AEs” value [2]?
Its value is 0.

What about the “No. (%) of subjects … SAEs” value [2] of the same molecule?
Its value is 0.

What about the “No. of adverse events: All AEs” value [2] of the same molecule?
The value was 12.

And the “No. of adverse events: All AEs, Treatment related” value [2]?
Its value is 3.

What about the “No. of adverse events: Grade 2 AEs” value [2] of the same molecule?
The value was 5.

What about the “No. of adverse events: Grade 2 AEs, Treatment related” value [2] of the same molecule?
Its value is 1.

And the “No. of adverse events: Grade 3 AEs” value [2]?
Its value is 0.

And the “No. of adverse events: SAEs” value [2]?
The value was 0.

And the “No. (%) of subjects with adverse events: All AEs” value [3]?
Its value is 5 (83).

What about the “No. (%) … All AEs, Treatment related” value [3] of the same molecule?
Its value is 3 (50).

What about the “No. (%) of subjects with adverse events: Grade 2 AEs” value [3] of the same molecule?
The value was 3 (50).

What about the “No. (%) … Grade 2 AEs, Treatment related” value [3] of the same molecule?
Its value is 1 (17).

And the “No. (%) of subjects … SAEs” value [3]?
Its value is 0.

And the “No. of adverse events: All AEs” value [3]?
The value was 19.

And the “No. of adverse events: All AEs, Treatment related” value [3]?
The value was 3.

And the “No. of adverse events: Grade 2 AEs” value [3]?
Its value is 4.

And the “No. of adverse events: Grade 2 AEs, Treatment related” value [3]?
The value was 1.

What about the “No. of adverse events: SAEs” value [3] of the same molecule?
Its value is 0.

What about the “No. (%) of subjects … Grade 3 AEs” value [4] of the same molecule?
Its value is 1 (17)^c.

What about the “No. of adverse events: Grade 3 AEs” value [4] of the same molecule?
Its value is 1^c.

What about the “No. (%) of subjects with adverse events: All AEs” value [5] of the same molecule?
The value was 6 (100).

What about the “No. (%) … All AEs, Treatment related” value [5] of the same molecule?
The value was 2 (33).

What about the “No. (%) of subjects with adverse events: Grade 2 AEs” value [5] of the same molecule?
Its value is 2 (33).

What about the “No. (%) … Grade 2 AEs, Treatment related” value [5] of the same molecule?
Its value is 1 (17).

What about the “No. (%) of subjects … SAEs” value [5] of the same molecule?
The value was 0.

And the “No. of adverse events: All AEs” value [5]?
Its value is 22.

And the “No. of adverse events: All AEs, Treatment related” value [5]?
The value was 2.

And the “No. of adverse events: Grade 2 AEs” value [5]?
Its value is 2.

What about the “No. of adverse events: Grade 2 AEs, Treatment related” value [5] of the same molecule?
The value was 1.

And the “No. of adverse events: SAEs” value [5]?
Its value is 0.

What about the “No. (%) of subjects … Grade 3 AEs” value [6] of the same molecule?
The value was 1 (17)^c.

What about the “No. of adverse events: Grade 3 AEs” value [6] of the same molecule?
The value was 1^c.

What about the “No. (%) of subjects with adverse events: All AEs” value [7] of the same molecule?
Its value is 6 (100).

What about the “No. (%) … All AEs, Treatment related” value [7] of the same molecule?
Its value is 2 (33).

And the “No. (%) of subjects with adverse events: Grade 2 AEs” value [7]?
The value was 5 (83).

What about the “No. (%) … Grade 2 AEs, Treatment related” value [7] of the same molecule?
The value was 0.

What about the “No. (%) of subjects … Grade 3 AEs” value [7] of the same molecule?
Its value is 0.

What about the “No. (%) of subjects … SAEs” value [7] of the same molecule?
Its value is 0.

And the “No. of adverse events: All AEs” value [7]?
The value was 20.

And the “No. of adverse events: All AEs, Treatment related” value [7]?
Its value is 3.

And the “No. of adverse events: Grade 2 AEs” value [7]?
The value was 6.

And the “No. of adverse events: Grade 2 AEs, Treatment related” value [7]?
Its value is 0.

And the “No. of adverse events: Grade 3 AEs” value [7]?
The value was 0.

What about the “No. of adverse events: SAEs” value [7] of the same molecule?
The value was 0.

What about the “No. (%) of subjects with adverse events: All AEs” value [8] of the same molecule?
The value was 6 (100).

And the “No. (%) … All AEs, Treatment related” value [8]?
Its value is 1 (17).

And the “No. (%) of subjects with adverse events: Grade 2 AEs” value [8]?
Its value is 2 (33).

And the “No. (%) … Grade 2 AEs, Treatment related” value [8]?
The value was 1 (17).

And the “No. (%) of subjects … Grade 3 AEs” value [8]?
The value was 0.

What about the “No. of adverse events: All AEs” value [8] of the same molecule?
Its value is 11.

And the “No. of adverse events: All AEs, Treatment related” value [8]?
The value was 1.

And the “No. of adverse events: Grade 2 AEs” value [8]?
The value was 3.

What about the “No. of adverse events: Grade 2 AEs, Treatment related” value [8] of the same molecule?
Its value is 1.

What about the “No. of adverse events: Grade 3 AEs” value [8] of the same molecule?
Its value is 0.

And the “No. (%) of subjects … SAEs” value [9]?
The value was 1 (17)^e.

What about the “No. of adverse events: SAEs” value [9] of the same molecule?
Its value is 1^e.

What about the “trends in inhibin B, FSH, LH, or testosterone levels” value (first-in-human study, across dose groups) of the same molecule?
Its value is “No trends”.

What about the “adverse events considered potentially related to MMV390048” value (first-in-human study, all MMV390048 cohorts) of the same molecule?
The value was “Twelve”.

And the “QT prolongation (QTcF, >450 ms)” value (first-in-human study, any subject)?
The value was “No QT prolongation”.

And the “decrease in blood pressure (to)” value (first-in-human study, mild related AE, one subject)?
The value was 87/52.

What about the “diarrhea considered related to MMV390048, cases” value (first-in-human study, moderate severity, in 2 subjects) of the same molecule?
The value was 2.

And the “duration of moderate papular urticaria episode” value (one subject, 20 mg)?
The value was 20 days.

What about the “onset of moderate papular urticaria after dosing” value (one subject, 20 mg) of the same molecule?
Its value is 14 days.

What about the “time for neutrophil count to return to >1.5 × 10^9 liter^−1” value (one subject, 40 mg fasted) of the same molecule?
Its value is 4 days.

And the “time for neutrophil count to return to >1.5 × 10^9 liter^−1” value (one subject, 40 mg fed)?
Its value is 13 days.

What about the “PR prolongation on ECG, maximum” value (one subject, 24 h after 20 mg, PR 200.3 ms on admission) of the same molecule?
Its value is 285 ms.

And the “lowest observed neutrophil count” value (one subject, fasted state (predose 1.65))?
The value was 7.7e+08 L⁻¹.

What about the “lowest observed neutrophil count” value (one subject, fed state (predose 1.90)) of the same molecule?
Its value is 9.7e+08 L⁻¹.

And the tolerability (single oral dose up to 120 mg, healthy volunteers)?
Its tolerability is “generally well tolerated”.
